Data published in US10670605B2, “Cysteine reactive probes and uses thereof” (The Scripps Research Institute, priority 2015, dated 2020).
One block for each compound: values may come before it.

Tests used:
Test in all cases: Competitive isoTOP-ABPP, cell lysates;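 for isoTOP-ABPP reactivity profile ratio, P63244 C182: Heavy/light ratio DMSO over fragment-treated so higher means more cysteine engagement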;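 for isoTOP-ABPP reactivity profile ratio, P68036 C86: Heavy/light ratio DMSO over fragment-treated so higher means more cysteine engagement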
Assay type in all cases: binding
DCUN1D1 C115 (Q96GG9) = DCUN1D1 C115 (Q96GG9) (Homo sapiens, UniProt Q96GG9)
UCHL3 C95 (P15374) = target: T1, UCHL3 C95 (P15374) (Homo sapiens, UniProt P15374); settings: for isoTOP-ABPP reactivity profile ratio, P15374_C95: 500 μm
T1 sequence (P15374 1-230): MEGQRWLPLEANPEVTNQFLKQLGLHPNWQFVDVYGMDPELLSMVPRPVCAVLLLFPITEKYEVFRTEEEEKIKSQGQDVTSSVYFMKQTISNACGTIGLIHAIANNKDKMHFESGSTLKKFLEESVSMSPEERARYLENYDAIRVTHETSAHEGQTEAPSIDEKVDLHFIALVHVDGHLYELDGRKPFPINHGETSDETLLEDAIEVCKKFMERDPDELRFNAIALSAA

MGMT C150 (P16455) = target: T2, MGMT C150 (P16455) (Homo sapiens, UniProt P16455)
T2 sequence (P16455 1-207): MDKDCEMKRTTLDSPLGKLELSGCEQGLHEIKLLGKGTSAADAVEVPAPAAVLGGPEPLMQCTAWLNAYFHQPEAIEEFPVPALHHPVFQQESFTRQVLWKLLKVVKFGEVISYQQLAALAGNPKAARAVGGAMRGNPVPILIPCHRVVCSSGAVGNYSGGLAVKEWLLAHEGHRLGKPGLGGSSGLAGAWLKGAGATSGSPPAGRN

UBE2L3 C86 (P68036) = UBE2L3 C86 (P68036) (Homo sapiens, UniProt P68036); settings: for R value (DMSO/fragment) / isoTOP-ABPP ratio, P68036_C86: 500 μM; for isoTOP-ABPP reactivity profile ratio, P68036_C86: 500 μm;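 for isoTOP-ABPP reactivity profile ratio, P68036 C86: Heavy/light ratio DMSO over fragment-treated so higher means more cysteine engagement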
GNB2L1 C182 (P63244) = GNB2L1 C182 (P63244) (Homo sapiens, UniProt P63244); settings: for R value (DMSO/fragment) / isoTOP-ABPP ratio, P63244_C182: 500 μM; for isoTOP-ABPP reactivity profile ratio, P63244_C182 / isoTOP-ABPP reactivity ratio, P63244_C182: 500 μm;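 for isoTOP-ABPP reactivity profile ratio, P63244 C182: Heavy/light ratio DMSO over fragment-treated so higher means more cysteine engagement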
PRMT1 C109 (Q99873) = PRMT1 C109 (Q99873) (Homo sapiens, UniProt Q99873); settings: for R value (DMSO/fragment) / isoTOP-ABPP ratio, Q99873_C109: 500 μM; for isoTOP-ABPP reactivity ratio, Q99873_C109 / isoTOP-ABPP reactivity profile ratio, Q99873_C109: 500 μm
SAMHD1 C522 (Q9Y3Z3) = SAMHD1 C522 (Q9Y3Z3) (Homo sapiens, UniProt Q9Y3Z3); settings: 500 μM, invitro, ramos
ZNF217 C286 (O75362) = ZNF217 C286 (O75362) (Homo sapiens, UniProt O75362); settings: for R value (DMSO/fragment) / isoTOP-ABPP ratio O75362_C286: 500 μM; for isoTOP-ABPP ratio O75362_C286: 231; for isoTOP-ABPP reactivity profile ratio, O75362_C286: 500 μm
PCK2 C306 (Q16822) = target: T3, PCK2 C306 (Q16822) (Homo sapiens, UniProt Q16822); settings: for isoTOP-ABPP ratio, Q16822_C306: 500 μM, invitro; for isoTOP-ABPP reactivity profile ratio, Q16822_C306 / isoTOP-ABPP reactivity ratio, Q16822_C306: 500 μm
T3 sequence (Q16822 33-640): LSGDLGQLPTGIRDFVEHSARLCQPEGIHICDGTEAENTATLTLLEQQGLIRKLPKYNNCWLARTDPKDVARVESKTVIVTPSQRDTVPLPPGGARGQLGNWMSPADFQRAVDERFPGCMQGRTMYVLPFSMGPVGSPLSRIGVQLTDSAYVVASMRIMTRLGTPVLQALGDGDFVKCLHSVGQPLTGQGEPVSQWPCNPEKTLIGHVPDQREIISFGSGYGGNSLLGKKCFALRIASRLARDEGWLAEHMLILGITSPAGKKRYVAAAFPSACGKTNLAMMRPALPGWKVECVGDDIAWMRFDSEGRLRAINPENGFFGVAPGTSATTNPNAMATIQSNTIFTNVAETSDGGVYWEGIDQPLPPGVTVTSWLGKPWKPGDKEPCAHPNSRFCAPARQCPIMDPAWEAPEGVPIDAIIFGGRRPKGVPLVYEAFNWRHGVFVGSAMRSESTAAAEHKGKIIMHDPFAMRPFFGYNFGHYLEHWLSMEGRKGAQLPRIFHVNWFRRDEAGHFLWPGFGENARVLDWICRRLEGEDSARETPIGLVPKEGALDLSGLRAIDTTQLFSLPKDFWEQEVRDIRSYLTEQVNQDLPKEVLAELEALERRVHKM

STAT3 C259 (P40763) = STAT3 C259 (P40763) (Homo sapiens, UniProt P40763)

Structure (SMILES): C=CC(=O)N(c1ccccc1)c1ccc(Br)cc1 [compound 5]
isoTOP-ABPP ratio, P15374_C95 (UCHL3 C95 (P15374); 500 μM, invitro, 231): 1.5
isoTOP-ABPP ratio, P15374_C95 (UCHL3 C95 (P15374); 500 μM, invitro, ramos): 1.1
isoTOP-ABPP ratio, P16455_C150 (MGMT C150 (P16455); 500 μM, invitro, ramos): 9.6
isoTOP-ABPP ratio, P68036_C86 (UBE2L3 C86 (P68036); invitro, ramos): 4.8
isoTOP-ABPP ratio, P63244_C182 (GNB2L1 C182 (P63244); invitro, 231): 1.5
isoTOP-ABPP ratio, P63244_C182 (GNB2L1 C182 (P63244); invitro, ramos): 1.4
isoTOP-ABPP ratio, Q16822_C306 (PCK2 C306 (Q16822); 231): 1.7
isoTOP-ABPP ratio, Q99873_C109 (PRMT1 C109 (Q99873); invitro, 231): 0.9
isoTOP-ABPP ratio, Q99873_C109 (PRMT1 C109 (Q99873); invitro, ramos): 1.3
isoTOP-ABPP ratio, Q9Y3Z3_C522 (SAMHD1 C522 (Q9Y3Z3)): 5.4

Structure (SMILES): O=C(CCl)N(Cc1ccc(F)cc1)C12CC3CC(CC(C3)C1)C2 [compound 34]
isoTOP-ABPP reactivity ratio, P16455_C150 (MGMT C150 (P16455); 500 μm, in-vitro_ramos): 1.4
isoTOP-ABPP reactivity ratio, Q99873_C109 (PRMT1 C109 (Q99873); in-vitro_ramos): 1.1
isoTOP-ABPP reactivity ratio, Q99873_C109 (PRMT1 C109 (Q99873); in-vitro_ramos_231): 0.8

Structure (SMILES): O=C(CCl)NC(=O)NC12CC3CC(CC(C3)C1)C2 [compound 12]
isoTOP-ABPP ratio, Q96GG9_C115 (DCUN1D1 C115 (Q96GG9); 500 μM, invitro, ramos): 0.6
isoTOP-ABPP ratio, P15374_C95 (UCHL3 C95 (P15374); 500 μM, invitro, ramos): 0.5
isoTOP-ABPP ratio, P16455_C150 (MGMT C150 (P16455); 500 μM, invitro, ramos): 20.0
isoTOP-ABPP ratio, P63244_C182 (GNB2L1 C182 (P63244); invitro, 231): 0.9
isoTOP-ABPP ratio, P63244_C182 (GNB2L1 C182 (P63244); invitro, ramos): 0.8
isoTOP-ABPP ratio, Q16822_C306 (PCK2 C306 (Q16822); 231): 1.5
isoTOP-ABPP ratio, Q16822_C306 (PCK2 C306 (Q16822); ramos): 0.7
isoTOP-ABPP ratio, Q99873_C109 (PRMT1 C109 (Q99873); invitro, 231): 1.4
isoTOP-ABPP ratio, Q99873_C109 (PRMT1 C109 (Q99873); invitro, ramos): 1.3
isoTOP-ABPP ratio O75362_C286 (ZNF217 C286 (O75362); invitro): 1.0

Structure (SMILES): O=C(CCl)Nc1ccccc1C1CCCCCC1 [compound 35]
isoTOP-ABPP reactivity ratio, Q96GG9_C115 (DCUN1D1 C115 (Q96GG9); 500 μm, in-vitro_ramos): 0.9
isoTOP-ABPP reactivity ratio, P16455_C150 (MGMT C150 (P16455); 500 μm, in-vitro_ramos): 1.3
isoTOP-ABPP reactivity ratio, P63244_C182 (GNB2L1 C182 (P63244); in-vitro_ramos): 0.9
isoTOP-ABPP reactivity ratio, P63244_C182 (GNB2L1 C182 (P63244); in-vitro_ramos_231): 0.9
isoTOP-ABPP reactivity ratio, Q16822_C306 (PCK2 C306 (Q16822); in-vitro_ramos): 1.0
isoTOP-ABPP reactivity ratio, Q16822_C306 (PCK2 C306 (Q16822); in-vitro_ramos_231): 0.9
isoTOP-ABPP reactivity ratio, P40763_C259 (STAT3 C259 (P40763); 500 μm, in-vitro_ramos): 1.1
isoTOP-ABPP reactivity ratio, Q99873_C109 (PRMT1 C109 (Q99873); in-vitro_ramos): 1.0
isoTOP-ABPP reactivity ratio, Q99873_C109 (PRMT1 C109 (Q99873); in-vitro_ramos_231): 0.8

The remaining lines, values ahead:

R value (DMSO/fragment) (DCUN1D1 C115 (Q96GG9); 500 μM, invitro, ramos): 20.0
R value (DMSO/fragment) (UCHL3 C95 (P15374); 500 μM, invitro, ramos): 1.8
R value (DMSO/fragment) (MGMT C150 (P16455); 500 μM, invitro, ramos): 20.0
R value (DMSO/fragment) (UBE2L3 C86 (P68036); in vitro, MDA-MB-231): 2.8
R value (DMSO/fragment) (UBE2L3 C86 (P68036); invitro, ramos): 2.5
R value (DMSO/fragment) (GNB2L1 C182 (P63244); in vitro, MDA-MB-231): 1.2
R value (DMSO/fragment) (GNB2L1 C182 (P63244); invitro, ramos): 1.2
R value (DMSO/fragment) (PRMT1 C109 (Q99873); in vitro, MDA-MB-231): 3.1
R value (DMSO/fragment) (PRMT1 C109 (Q99873); invitro, ramos): 12.6
blockade of IA-alkyne labeling of C109 of PRMT1 (PRMT1 C109 (Q99873); competitive isoTOP-ABPP): blocking IA-alkyne labeling
R value (DMSO/fragment) (SAMHD1 C522 (Q9Y3Z3)): 4.0
R value (DMSO/fragment) (ZNF217 C286 (O75362); in vitro, MDA-MB-231): 20.0
R value (DMSO/fragment) (ZNF217 C286 (O75362); invitro, ramos): 20.0
Structure (SMILES): COc1ccc2c(c1)CCCN2C(=O)CCl [compound 2]

isoTOP-ABPP ratio, P15374_C95 (UCHL3 C95 (P15374); 500 μM, invitro, 231): 1.1
isoTOP-ABPP ratio, P68036_C86 (UBE2L3 C86 (P68036); invitro, 231): 1.8
isoTOP-ABPP ratio, P63244_C182 (GNB2L1 C182 (P63244); invitro, 231): 1.5
isoTOP-ABPP ratio, P40763_C259 (STAT3 C259 (P40763); 500 μM, invitro, 231): 0.6
isoTOP-ABPP ratio, Q99873_C109 (PRMT1 C109 (Q99873); invitro, 231): 1.1
isoTOP-ABPP ratio O75362_C286 (ZNF217 C286 (O75362); invitro): 0.9
Structure (SMILES): CNS(=O)(=O)C=Cc1ccc2c(ccn2Cc2ccccc2)c1 [compound 6]

isoTOP-ABPP reactivity profile ratio, P15374_C95 (UCHL3 C95 (P15374); in-vitro_ramos_231): 1.0
isoTOP-ABPP reactivity profile ratio, P68036_C86 (UBE2L3 C86 (P68036); in-vitro_ramos_231): 1.2
isoTOP-ABPP reactivity profile ratio, P63244_C182 (GNB2L1 C182 (P63244); in-vitro_ramos_231): 0.8
isoTOP-ABPP reactivity profile ratio, Q16822_C306 (PCK2 C306 (Q16822); in-vitro_ramos_231): 0.9
isoTOP-ABPP reactivity profile ratio, P40763_C259 (STAT3 C259 (P40763); 500 μm, in-vitro_ramos_231): 1.2
isoTOP-ABPP reactivity profile ratio, Q99873_C109 (PRMT1 C109 (Q99873); in-vitro_ramos_231): 0.8
isoTOP-ABPP reactivity profile ratio, O75362_C286 (ZNF217 C286 (O75362); in-vitro_ramos_231): 0.9
Structure (SMILES): C=CC(=O)N(c1ccccc1)C1CCCCC1 [compound 46]

isoTOP-ABPP reactivity profile ratio, Q96GG9_C115 (DCUN1D1 C115 (Q96GG9); 500 μm, in-vitro_ramos): 0.9
isoTOP-ABPP reactivity profile ratio, P15374_C95 (UCHL3 C95 (P15374); in-vitro_ramos): 0.9
isoTOP-ABPP reactivity profile ratio, P16455_C150 (MGMT C150 (P16455); 500 μm, in-vitro_ramos): 0.8
isoTOP-ABPP reactivity profile ratio, P68036_C86 (UBE2L3 C86 (P68036); in-vitro_ramos): 0.8
isoTOP-ABPP reactivity profile ratio, P63244_C182 (GNB2L1 C182 (P63244); in-vitro_ramos): 0.8
isoTOP-ABPP reactivity profile ratio, Q16822_C306 (PCK2 C306 (Q16822); in-vitro_ramos): 0.8
isoTOP-ABPP reactivity profile ratio, Q99873_C109 (PRMT1 C109 (Q99873); in-vitro_ramos): 0.9
isoTOP-ABPP reactivity profile ratio, O75362_C286 (ZNF217 C286 (O75362); in-vitro_ramos): 1.0
Structure (SMILES): N#CC(=Cc1ccc(-c2ccccc2Cl)o1)C(N)=O [compound 42]
